Experimental data: patent publication US20230085307A1, “PYRIDAZINONE COMPOUND AND HERBICIDE” (NISSAN CHEMICAL CORPORATION, priority 2019, published 2023)

Legend:
[1] = system: chickweed; assay: Test Example 5: herbicidal effect by foliage application, plastic box (Table 20, symbol P); assay type: in vivo, common chickweed (Stellaria media); details: foliage application, three weeks after application
Outline: (§1)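 Plants sown in sterilized diluvial soil and grown 14 days in a greenhouse at 25° C to 30° C, then sprayed on the foliage with the compound's emulsion diluted in water to a predetermined herbicide amount. Injury to weeds and crops scored three weeks after application on a visual rating scale.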

[2] = system: late watergrass; assay: Test Example 2: herbicidal activity, application during weed generation under submerged conditions (Table 17, symbol A); assay type: in vivo, late watergrass (Echinochloa oryzicola); details: application during weed generation, submerged conditions
Outline: (§2)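 Effect on each weed is rated three weeks post-treatment, using the same scoring criteria as the preceding test. Plants grow from mixed-sown seed in flooded alluvial soil (4 cm water) at 25° C. to 30° C., and are treated at one to two leaves with diluted emulsion dropped onto the water.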

[3] = system: redroot pigweed; assay: Test Example 4: herbicidal effect by soil treatment (Table 19, symbol N); assay type: in vivo, redroot pigweed (Amaranthus retroflexus)
Outline: (§3)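 Seeds were sown in sterilized diluvial soil and covered with about 1.5 cm of soil. An emulsion formulation diluted with water to a predetermined herbicide amount was sprayed evenly onto the soil surface. Plants grew in a greenhouse at 25° C. to 30° C., and the effect was scored three weeks after application using criteria from an earlier test.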

[4] = system: oval-leafed pondweed; assay: Test Example 2: herbicidal activity, application during weed generation under submerged conditions (Table 17, symbol C); assay type: in vivo, oval-leafed pondweed (Monochoria vaginalis); details: application during weed generation, submerged conditions
Outline: as §2

[5] = system: chickweed; assay: Test Example 4: herbicidal effect by soil treatment (Table 19, symbol P); assay type: in vivo, common chickweed (Stellaria media)
Outline: as §3

[6] = system: false cleavers; assay: Test Example 5: herbicidal effect by foliage application, plastic box (Table 20, symbol Q); assay type: in vivo, false cleavers (Galium spurium); details: foliage application, three weeks after application
Outline: as §1

[7] = system: barnyard grass; assay: Test Example 4: herbicidal effect by soil treatment (Table 19, symbol H); assay type: in vivo, barnyard grass (Echinochloa crus-galli)
Outline: as §3

[8] = system: lambsquarters; assay: Test Example 5: herbicidal effect by foliage application, plastic box (Table 20, symbol O); assay type: in vivo, lambsquarters (Chenopodium album); details: foliage application, three weeks after application
Outline: as §1

[9] = system: Chinese sprangletop; assay: Test Example 3: herbicidal effect by foliage application, Wagner pot (Table 18, symbol D); assay type: in vivo, chinese sprangletop (Leptochloa chinensis)
Outline: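 Plants were sown in alluvial soil held under 0.1–0.5 cm standing water and grown 14 days in a greenhouse at 25–30 °C. An emulsifiable formulation, water-diluted to the set dose, was then sprayed onto the foliage, and effects were scored three weeks later using previously defined criteria.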

[10] = system: persian speedwell; assay: Test Example 5: herbicidal effect by foliage application, plastic box (Table 20, symbol R); assay type: in vivo, Persian speedwell (Veronica persica); details: foliage application, three weeks after application
Outline: as §1

[11] = system: Japanese bulrush; assay: Test Example 2: herbicidal activity, application during weed generation under submerged conditions (Table 17, symbol B); assay type: in vivo, Japanese bulrush (Schoenoplectus juncoides); details: application during weed generation, submerged conditions
Outline: as §2

[12] = system: blackgrass; assay: Test Example 4: herbicidal effect by soil treatment (Table 19, symbol J); assay type: in vivo, blackgrass (Alopecurus myosuroides)
Outline: as §3

[13] = system: lambsquarters; assay: Test Example 4: herbicidal effect by soil treatment (Table 19, symbol O); assay type: in vivo, lambsquarters (Chenopodium album)
Outline: as §3

[14] = system: wild oat; assay: Test Example 4: herbicidal effect by soil treatment (Table 19, symbol I); assay type: in vivo, wild oat (Avena fatua)
Outline: as §3

[15] = system: oval-leafed pondweed; assay: Test Example 1: herbicidal activity, application before weed generation under submerged conditions (Table 16, symbol C); assay type: in vivo, oval-leafed pondweed (Monochoria vaginalis)
Outline: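 Alluvial soil was flooded to 4 cm depth, weed seeds were sown mixed and 2.5-leaf rice seedlings were transplanted. On sowing day, the compound's emulsion, diluted in water to a set dose, was applied to the water surface. Plants grew at 25–30 °C and were scored 0–5 after three weeks.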

[16] = system: Italian ryegrass; assay: Test Example 5: herbicidal effect by foliage application, plastic box (Table 20, symbol K); assay type: in vivo, Italian ryegrass (Lolium multiflorum); details: foliage application, three weeks after application
Outline: as §1

[17] = system: false cleavers; assay: Test Example 4: herbicidal effect by soil treatment (Table 19, symbol Q); assay type: in vivo, false cleavers (Galium spurium)
Outline: as §3

[18] = amount of applied herbicide 320 g/ha
[19] = amount of applied herbicide 310 g/ha

| Compound | P: chickweed, herbicidal effect grade ([1]; 320 g/ha) | herbicidal effect rating, A: late watergrass ([2]; AAH 320 g/ha) | N: redroot pigweed, herbicidal effect grade [3, 18] | herbicidal effect rating, C: oval-leafed pondweed ([4]; AAH 320 g/ha) | P: chickweed, herbicidal effect grade [5, 18] | Q: false cleavers, herbicidal effect grade ([6]; 320 g/ha) | H: barnyard grass, herbicidal effect grade [7, 18] | O: lambsquarters, herbicidal effect grade ([8]; 320 g/ha) | herbicidal effect on Chinese sprangletop (D) ([9]; 320 g/ha) | R: persian speedwell, herbicidal effect grade ([10]; 320 g/ha) | herbicidal effect rating, B: Japanese bulrush ([11]; AAH 320 g/ha) | J: blackgrass, herbicidal effect grade [12, 18] | O: lambsquarters, herbicidal effect grade [13, 18] | I: wild oat, herbicidal effect grade [14, 18] | Herbicidal effect, C: oval-leafed pondweed [15, 18] | K: Italian ryegrass, herbicidal effect grade ([16]; 320 g/ha) | Q: false cleavers, herbicidal effect grade [17, 18] | also measured |
| --- | --- | --- | --- | --- | --- | --- | --- | --- | --- | --- | --- | --- | --- | --- | --- | --- | --- | --- |
| COc1ccc2c(-c3c(O)c(C)nn(C)c3=O)c(-c3ccc(F)cc3OC)sc2c1 [3-076] | 5 (Herbicidal rate of 90% or more (almost completely withered)) | 3 (Herbicidal rate of 40% or more and less than 70%) | 5 (Herbicidal rate of 90% or more (almost completely withered)) | 4 (Herbicidal rate of 70% or more and less than 90%) | 2 (Herbicidal rate of 20% or more and less than 40%) | 4 (Herbicidal rate of 70% or more and less than 90%) | 3 (Herbicidal rate of 40% or more and less than 70%) | 5 (Herbicidal rate of 90% or more (almost completely withered)) | 3 (Herbicidal rate of 40% or more and less than 70%) | 4 (Herbicidal rate of 70% or more and less than 90%) | 4 (Herbicidal rate of 70% or more and less than 90%) | 5 (Herbicidal rate of 90% or more (almost completely withered)) | 4 (Herbicidal rate of 70% or more and less than 90%) | 3 (Herbicidal rate of 40% or more and less than 70%) | 5 (Herbicidal rate of 90% or more (almost completely withered)) | 4 (Herbicidal rate of 70% or more and less than 90%) | 4 (Herbicidal rate of 70% or more and less than 90%) | – |
| CCCC(=O)Oc1c(C)nn(C)c(=O)c1-c1c(-c2ccc(F)cc2OC)sc2cc(OC)ccc12 [3-077] | 5 (Herbicidal rate of 90% or more (almost completely withered)) | 2 (Herbicidal rate of 20% or more and less than 40%) | 5 (Herbicidal rate of 90% or more (almost completely withered)) | 4 (Herbicidal rate of 70% or more and less than 90%) | 4 (Herbicidal rate of 70% or more and less than 90%) | 3 (Herbicidal rate of 40% or more and less than 70%) | 3 (Herbicidal rate of 40% or more and less than 70%) | 4 (Herbicidal rate of 70% or more and less than 90%) | 1 (Herbicidal rate of 5% or more and less than 20%) | 3 (Herbicidal rate of 40% or more and less than 70%) | 4 (Herbicidal rate of 70% or more and less than 90%) | 3 (Herbicidal rate of 40% or more and less than 70%) | 4 (Herbicidal rate of 70% or more and less than 90%) | 2 (Herbicidal rate of 20% or more and less than 40%) | 5 (Herbicidal rate of 90% or more (almost completely withered)) | 3 (Herbicidal rate of 40% or more and less than 70%) | 2 (Herbicidal rate of 20% or more and less than 40%) | – |
| CCOc1ccccc1-c1sc2cc(OC)ccc2c1-c1c(O)c(C)nn(CC)c1=O [3-085] | 5 (Herbicidal rate of 90% or more (almost completely withered)) | 0 (Herbicidal rate of 5% or less (almost no effect)) | 3 (Herbicidal rate of 40% or more and less than 70%) | 3 (Herbicidal rate of 40% or more and less than 70%) | 3 (Herbicidal rate of 40% or more and less than 70%) | 4 (Herbicidal rate of 70% or more and less than 90%) | 3 (Herbicidal rate of 40% or more and less than 70%) | 3 (Herbicidal rate of 40% or more and less than 70%) | 0 (Herbicidal rate of 5% or less (almost no effect)) | 5 (Herbicidal rate of 90% or more (almost completely withered)) | 3 (Herbicidal rate of 40% or more and less than 70%) | 1 (Herbicidal rate of 5% or more and less than 20%) | 3 (Herbicidal rate of 40% or more and less than 70%) | 0 (Herbicidal rate of 5% or less (almost no effect)) | 4 (Herbicidal rate of 70% or more and less than 90%) | 0 (Herbicidal rate of 5% or less (almost no effect)) | 0 (Herbicidal rate of 5% or less (almost no effect)) | – |
| CCCC(=O)Oc1c(C)nn(C)c(=O)c1-c1c(-c2ccccc2OC)sc2cc(OCC)ccc12 [3-090] | – | – | – | – | – | – | – | – | – | – | – | – | – | – | – | – | – | P: chickweed, herbicidal effect grade ([1]; 310 g/ha): 5 (Herbicidal rate of 90% or more (almost completely withered)); herbicidal effect rating, A: late watergrass ([2]; AAH 310 g/ha): 4 (Herbicidal rate of 70% or more and less than 90%); N: redroot pigweed, herbicidal effect grade [3, 19]: 4 (Herbicidal rate of 70% or more and less than 90%); herbicidal effect rating, C: oval-leafed pondweed ([4]; AAH 310 g/ha): 5 (Herbicidal rate of 90% or more (almost completely withered)); P: chickweed, herbicidal effect grade [5, 19]: 4 (Herbicidal rate of 70% or more and less than 90%); Q: false cleavers, herbicidal effect grade ([6]; 310 g/ha): 5 (Herbicidal rate of 90% or more (almost completely withered)); H: barnyard grass, herbicidal effect grade [7, 19]: 2 (Herbicidal rate of 20% or more and less than 40%); O: lambsquarters, herbicidal effect grade ([8]; 310 g/ha): 5 (Herbicidal rate of 90% or more (almost completely withered)); herbicidal effect on Chinese sprangletop (D) ([9]; 310 g/ha): 5 (Herbicidal rate of 90% or more (almost completely withered)); R: persian speedwell, herbicidal effect grade ([10]; 310 g/ha): 5 (Herbicidal rate of 90% or more (almost completely withered)); herbicidal effect rating, B: Japanese bulrush ([11]; AAH 310 g/ha): 4 (Herbicidal rate of 70% or more and less than 90%); J: blackgrass, herbicidal effect grade [12, 19]: 4 (Herbicidal rate of 70% or more and less than 90%); O: lambsquarters, herbicidal effect grade [13, 19]: 4 (Herbicidal rate of 70% or more and less than 90%); I: wild oat, herbicidal effect grade [14, 19]: 0 (Herbicidal rate of 5% or less (almost no effect)); Herbicidal effect, C: oval-leafed pondweed [15, 19]: 4 (Herbicidal rate of 70% or more and less than 90%); K: Italian ryegrass, herbicidal effect grade ([16]; 310 g/ha): 5 (Herbicidal rate of 90% or more (almost completely withered)); Q: false cleavers, herbicidal effect grade [17, 19]: 5 (Herbicidal rate of 90% or more (almost completely withered)) |
